Data as given in US7105620B2, “3,4-alkylenedioxy-thiophene copolymers” (Agfa Gevaert, priority 2001, dated 2006).
≈ marks a conversion by molar mass, not a printed value.

assay: Solubility of 3,4-alkylenedioxythiophene compounds in water at 25° C.; type: physicochemical; details: thermodynamic from solid, visually adjudged dissolved
Procedure: The solubility of the 3,4-alkylenedioxythiophene compounds was determined by adding a particular quantity thereof with stirring to sufficient water so that all the monomer was visually adjudged to have dissolved.

| Molecule | solubility [µg/mL] |
| --- | --- |
| OC1COc2cscc2OC1 [M2, 3,4-dihydro-2H-thieno[3,4-b][1,4]dioxepin-3-ol] | ~8200 (≈ 47.6 mM) |
| O=S(=O)([O-])CCCCOCC1COc2cscc2O1.[Na+] (stereo not drawn) [M6, 4-(2,3-dihydro-thieno[3,4-b][1,4]dioxin-2-ylmethoxy)-butane-1-sulfonic acid sodium salt] | ~167000 |

The remaining lines, values ahead:

| solubility [µg/mL] | Molecule |
| --- | --- |
| ~10000 (≈ 58.1 mM) | OCC1COc2cscc2O1 (stereo not drawn) [M1, (2,3-dihydro-thieno[3,4-b][1,4]dioxin-2-yl)-methanol] |
| ~2700 (≈ 11.7 mM) | O=C(O)COCC1COc2cscc2O1 (stereo not drawn) [M3, (2,3-dihydro-thieno[3,4-b][1,4]dioxin-2-yl-methoxy)-acetic acid] |
| ~4500 (≈ 14.1 mM) | COCCOCCOCCOCC1COc2cscc2O1 (stereo not drawn) [M4, 2-{2-[2-(2-methoxy-ethoxy)-ethoxy]-ethoxymethyl}-2,3-dihydro-thieno[3,4-b][1,4]dioxine] |

same assay, conditions: visually adjudged dissolved

| Molecule | Solubility in water at 25° C. |
| --- | --- |
| Polyethylene Oxide Substituted (2,3-dihydro-thieno[3,4-b][1,4]dioxin-2-yl)-methanol [M5] | ca. >128 g/L |
